Values belong to the molecule of their own block, whether it stands above or below them.
How the values were obtained:
[1] = Half life of the compound at pH 6; format: physicochemical
Rattus norvegicus [2] = assay: Hypoglycemic activity in 48 hrs fasted rat assessed as reduction in glucose level at 300 mg/kg, po measured after 2 hrs; format: functional; set-up: scale not given: the % may be the effect or the level left
Rattus norvegicus [3] = assay: Hypoglycemic activity in 48 hrs fasted rat assessed as reduction in glucose level at 300 mg/kg, po measured after 4 hrs; format: functional; set-up: scale not given: the % may be the effect or the level left
Rattus norvegicus [4] = assay: Hypoglycemic activity in 48 hrs fasted rat assessed as reduction in glucose level at 300 mg/kg, po measured after 1 hr; format: functional; set-up: scale not given: the % may be the effect or the level left
[5] = Stability of the compound assessed as rate of 3-mercaptopicolinic acid formation at 10 mg at pH 6 by DTNB method; format: physicochemical
[6] = Half life of the compound at pH 8; format: physicochemical
[7] = Stability of the compound assessed as rate of 3-mercaptopicolinic acid formation at 10 mg at pH 8 by DTNB method; format: physicochemical
Rattus norvegicus [8] = assay: Hypoglycemic activity in 48 hrs fasted rat assessed as reduction in glucose level at 150 mg/kg, po measured after 1 hr; format: functional; set-up: scale not given: the % may be the effect or the level left
Rattus norvegicus [9] = assay: Hypoglycemic activity in 48 hrs fasted rat assessed as reduction in glucose level at 150 mg/kg, po measured after 2 hrs; format: functional; set-up: scale not given: the % may be the effect or the level left
Rattus norvegicus [10] = assay: Hypoglycemic activity in 48 hrs fasted rat assessed as reduction in glucose level at 150 mg/kg, po measured after 4 hrs; format: functional; set-up: scale not given: the % may be the effect or the level left
Rattus norvegicus [11] = assay: Hypoglycemic activity in 48 hrs fasted rat assessed as reduction in glucose level at 125 mg/kg, po measured after 1 hr; format: functional; set-up: scale not given: the % may be the effect or the level left
Rattus norvegicus [12] = assay: Hypoglycemic activity in 48 hrs fasted rat assessed as reduction in glucose level at 125 mg/kg, po measured after 4 hrs; format: functional; set-up: scale not given: the % may be the effect or the level left
Rattus norvegicus [13] = assay: Hypoglycemic activity in 48 hrs fasted rat assessed as reduction in glucose level at 125 mg/kg, po measured after 2 hrs; format: functional; set-up: scale not given: the % may be the effect or the level left
[14] = Stability of the compound in 3 N HCl-ethanol […] measured after refluxing for 2.5 hrs by TLC; format: physicochemical; settings: buffer
[15] = Stability of the compound in 3 N HCl at room temperature after 3.5 hrs by TLC; format: physicochemical; settings: buffer
Rattus norvegicus [16] = assay: Hypoglycemic activity in 48 hrs fasted rat assessed as reduction in glucose level at 250 mg/kg, po measured after 4 hrs; format: functional; set-up: scale not given: the % may be the effect or the level left
Rattus norvegicus [17] = assay: Hypoglycemic activity in 48 hrs fasted rat assessed as reduction in glucose level at 250 mg/kg, po measured after 2 hrs; format: functional; set-up: scale not given: the % may be the effect or the level left
Rattus norvegicus [18] = assay: Hypoglycemic activity in 48 hrs fasted rat assessed as reduction in glucose level at 250 mg/kg, po measured after 1 hr; format: functional; set-up: scale not given: the % may be the effect or the level left
Rattus norvegicus [19] = assay: Hypoglycemic activity in 48 hrs fasted rat assessed as reduction in glucose level at 200 mg/kg, po measured after 1 hr; format: functional; set-up: scale not given: the % may be the effect or the level left
Rattus norvegicus [20] = assay: Hypoglycemic activity in 48 hrs fasted rat assessed as reduction in glucose level at 200 mg/kg, po measured after 2 hrs; format: functional; set-up: scale not given: the % may be the effect or the level left
Rattus norvegicus [21] = assay: Hypoglycemic activity in 48 hrs fasted rat assessed as reduction in glucose level at 200 mg/kg, po measured after 4 hrs; format: functional; set-up: scale not given: the % may be the effect or the level left
[22] = Stability of the compound assessed as compound remaining at equilibrium at 10 mg at pH 6 by DTNB method; format: physicochemical

Compound: NS(=O)(=O)c1ccc(C(=O)Sc2cccnc2C(=O)O)cc1
Activity (Rattus norvegicus [8]): 20%
Activity (Rattus norvegicus [9]): -16%
Activity (Rattus norvegicus [10]): 3%

Compound: CCCCCCCCCCC(=O)Sc1cccnc1C(=O)O
Activity (Rattus norvegicus [8]): -14%
Activity (Rattus norvegicus [9]): 3%
Activity (Rattus norvegicus [10]): -9%

Compound: COC(=O)c1ccc(C(=O)Sc2cccnc2C(=O)O)cc1
Activity (Rattus norvegicus [8]): -17%
Activity (Rattus norvegicus [9]): -20%
Activity (Rattus norvegicus [10]): 1%

Compound: N#Cc1ccc(C(=O)Sc2cccnc2C(=O)O)cc1
Activity (Rattus norvegicus [8]): -18%
Activity (Rattus norvegicus [9]): -16%
Activity (Rattus norvegicus [10]): 0%

Compound: CN(C)c1ccc(C(=O)Sc2cccnc2C(=O)O)cc1
Activity (Rattus norvegicus [8]): -12%
Activity (Rattus norvegicus [9]): -2%
Activity (Rattus norvegicus [10]): -8%

Compound: CCC(=O)Sc1cccnc1C(=O)O
Activity (Rattus norvegicus [16]): 55%
Activity (Rattus norvegicus [17]): 52%
Activity (Rattus norvegicus [18]): 22%

Compound: O=C(Nc1ccc(C(=O)Sc2cccnc2C(=O)O)cc1)c1ccccc1
Activity (Rattus norvegicus [8]): -20%
Activity (Rattus norvegicus [9]): -20%
Activity (Rattus norvegicus [10]): -4%

Compound: CC(=O)Nc1ccc(C(=O)Sc2cccnc2C(=O)O)cc1
Activity (Rattus norvegicus [8]): -18%
Activity (Rattus norvegicus [9]): -14%
Activity (Rattus norvegicus [10]): 7%

Compound: CCCCNC(=O)NS(=O)(=O)c1ccc(C)cc1 [TOLBUTAMIDE]
Activity (Rattus norvegicus [19]): 28%
Activity (Rattus norvegicus [20]): 47%
Activity (Rattus norvegicus [21]): 48%

Compound: O=C(O)c1ncccc1S
Activity (Rattus norvegicus [8]): -32%
Activity (Rattus norvegicus [9]): -44%
Activity (Rattus norvegicus [10]): -56%

Compound: NC(=O)c1ccc(C(=O)Sc2cccnc2C(=O)O)cc1
Activity (Rattus norvegicus [8]): -22%
Activity (Rattus norvegicus [9]): -6%
Activity (Rattus norvegicus [10]): -25%

The next lines start with results.

half-life [1]: 25.6 h
Activity [5]: 0.0087 h⁻¹
half-life [6]: 80.1 h
Activity [7]: 0.0271 h⁻¹
Compound: Cc1ccc(C(=O)Sc2cccnc2C(=O)O)cc1
Activity (Rattus norvegicus [2]): -16%
Activity (Rattus norvegicus [3]): -4%
Activity (Rattus norvegicus [4]): -21%

half-life [1]: 11.9 h
Activity [5]: 0.0109 h⁻¹
half-life [6]: 63.7 h
Activity [7]: 0.0583 h⁻¹
Compound: COc1cccc(C(=O)Sc2cccnc2C(=O)O)c1
Activity (Rattus norvegicus [2]): -24%
Activity (Rattus norvegicus [3]): -30%
Activity (Rattus norvegicus [4]): -15%

half-life [1]: 7.9 h
Activity [5]: 0.0261 h⁻¹
half-life [6]: 26.6 h
Activity [7]: 0.0879 h⁻¹
Compound: O=C(Sc1cccnc1C(=O)O)c1ccc(Cl)cc1
Activity (Rattus norvegicus [11]): 12%
Activity (Rattus norvegicus [12]): 40%
Activity (Rattus norvegicus [2]): -34%
Activity (Rattus norvegicus [3]): -57%
Activity (Rattus norvegicus [4]): -43%
Activity (Rattus norvegicus [13]): 34%

half-life [1]: 21.1 h
Stability [14]: Stable
Stability [15]: Stable
Activity [5]: 0.0115 h⁻¹
half-life [6]: 60.1 h
Activity [7]: 0.0329 h⁻¹
Compound: O=C(Sc1cccnc1C(=O)O)c1ccccc1
Activity (Rattus norvegicus [2]): -42%
Activity (Rattus norvegicus [3]): -56%
Activity (Rattus norvegicus [4]): -27%

half-life [1]: 43.9 h
Activity [5]: 0.0038 h⁻¹
half-life [6]: 182 h
Activity [7]: 0.0158 h⁻¹
Compound: COc1ccc(C(=O)Sc2cccnc2C(=O)O)cc1
Activity (Rattus norvegicus [2]): -25%
Activity (Rattus norvegicus [3]): 19%
Activity (Rattus norvegicus [4]): 16%

half-life [1]: 27.2 h
Activity [5]: 0.0091 h⁻¹
half-life [6]: 75.8 h
Activity [7]: 0.0255 h⁻¹
Compound: O=C(Sc1cccnc1C(=O)O)c1ccccc1Cl
Activity (Rattus norvegicus [2]): -39%
Activity (Rattus norvegicus [3]): -40%
Activity (Rattus norvegicus [4]): -35%

half-life [1]: 61.1 h
Activity [5]: 0.006 h⁻¹
half-life [6]: 115 h
Activity [7]: 0.0114 h⁻¹
Compound: CC(C)(C)C(=O)Sc1cccnc1C(=O)O
Activity (Rattus norvegicus [11]): 21%
Activity (Rattus norvegicus [12]): 52%
Activity (Rattus norvegicus [2]): -43%
Activity (Rattus norvegicus [3]): -70%
Activity (Rattus norvegicus [4]): -20%
Activity (Rattus norvegicus [13]): 42%

half-life [1]: 12.1 h
Activity [5]: 0.0062 h⁻¹
half-life [6]: 111 h
Activity [7]: 0.0575 h⁻¹
Compound: O=C(Sc1cccnc1C(=O)O)c1ccc(F)cc1
Activity (Rattus norvegicus [2]): -47%
Activity (Rattus norvegicus [3]): -44%
Activity (Rattus norvegicus [4]): -29%

half-life [1]: 1.4 h
Stability [22]: 24.3 mol%
Activity [5]: 0.147 h⁻¹
half-life [6]: 4.7 h
Activity [7]: 0.513 h⁻¹
Compound: O=C(Sc1cccnc1C(=O)O)c1ccc([N+](=O)[O-])cc1
Activity (Rattus norvegicus [2]): 0%
Activity (Rattus norvegicus [3]): 12%
Activity (Rattus norvegicus [4]): 0%

half-life [1]: 3.9 h
Activity [5]: 0.0695 h⁻¹
half-life [6]: 10 h
Activity [7]: 0.179 h⁻¹
Compound: O=C(Sc1cccnc1C(=O)O)c1cccc(C(F)(F)F)c1
Activity (Rattus norvegicus [2]): -38%
Activity (Rattus norvegicus [3]): 45%
Activity (Rattus norvegicus [4]): -35%

half-life [1]: 3 h
Activity [5]: 0.0688 h⁻¹
half-life [6]: 10.1 h
Activity [7]: 0.231 h⁻¹
Compound: O=C(Sc1cccnc1C(=O)O)c1ccc(C(F)(F)F)cc1
Activity (Rattus norvegicus [11]): 28%
Activity (Rattus norvegicus [12]): 32%
Activity (Rattus norvegicus [2]): -54%
Activity (Rattus norvegicus [3]): -75%
Activity (Rattus norvegicus [4]): -26%
Activity (Rattus norvegicus [13]): 41%

half-life [1]: 4.7 h
Activity [5]: 0.0468 h⁻¹
half-life [6]: 14.8 h
Activity [7]: 0.148 h⁻¹
Compound: O=C(Sc1cccnc1C(=O)O)c1cccc(Cl)c1
Activity (Rattus norvegicus [2]): -32%
Activity (Rattus norvegicus [3]): -42%
Activity (Rattus norvegicus [4]): -27%
